The subject of data set [1] is outbred mice. In words: hot plate test (thermal irritation). Format: in vivo. The following applies: 0.5 mg/kg, intragastric. A general note: Thermal pain tests record how soon the animal reacts.
The test system of data set [2] is outbred mice. Kind of data set: acetic acid induced writhing test (visceral pain model). It counts as in vivo. How it is done:
(§1) Analgesic activity of compounds of general formula 1 was studied in the model of visceral pain <<acetic acid induced writhing test>> and thermal irritation test <<hot plate>> in white outbred mice of body mass 20-22 g in groups of 8 animals each after single administration in 1÷20 mg/kg doses.
Acetic acid induced writhing test was performed by intraperitoneal administration of 0.1 ml of 0.75% acetic acid to an animal. Activity was assessed by the quantity of writhing movements during 3 min.
Tests were carried out in outbred male mice with body mass 22-25 g. Experimental groups were formed, with 8 animals in each. <<Acetic writhes>> were produced by intraperitoneal administration of 0.75% acetic acid, 0.1 ml per animal. Test compounds were administered once intragastrically an hour before acetic acid administration. Animals that received only acetic acid were used as control. Activity was assessed by the quantity of writhes during 3 min.
(In general: Writhing tests count abdominal constrictions after an irritant is injected.)

The subject of data set [3] is outbred mice. In words: hot plate test (thermal irritation). Format: in vivo. The protocol:
as §1
Hot plate test characterizes thermal stimulus. The animals were placed on a copper plate, T=54° C. The effect was assessed by the duration of stay of the animal on the hot plate before the first vocalization.
Tests were carried out in outbred male mice of body mass 22-25 g. Experimental groups were formed, with 8 animals in each. The animals were placed on a copper hot plate, T=54° C. The effects were assessed by the duration of animal stay on the hot plate before the first <>, in seconds.
Test compounds were administered once intragastrically an hour before the test. Control animals received the corresponding solvent.

Data set [4] has as its system outbred mice. In words: acetic acid induced writhing test (visceral pain model). It counts as in vivo. The following applies: 0.5 mg/kg, intragastric.
Another data set deals with white outbred mice. In words: acute toxicity, single intragastric administration, Kerber method.
For data set [5] the following is noted: known drugs, data from ref. [2]; cited from earlier work.
The conditions of data set [6]: known drugs, data from ref. [2]; cited from earlier work. This is another data set of the same source.
Setting [7] is: 1 mg/kg dose, compared with sodium diclofenac 10 mg/kg.
Setting [8] is: 10 mg/kg, intragastric, (control − exp)/control · 100%.
Setting [9] is: 10 mg/kg, once intragastrically 1 h before 0.75% acetic acid i.p., writhes during 3 min.
Setting [10] is: 10 mg/kg, intragastric, (exp − control)/control · 100%.
Setting [11] is: 10 mg/kg, once intragastrically 1 h before test, plate 54° C, time to first vocalization.

Marks after values point to notes of the source that are not given here.

On to `CC1CCC2C(C1)OC(c1cccs1)CC2(C)O` (stereo not shown) [Compound 1a, 4,7-dimethyl-2-(thiophene-2-yl)octahydro-2H-chromene-4-ol], for which the “Hot plate, sec. (Agent)” value came to 20.3 ± 2.2 s in the data set on outbred mice [1]; 16.5 ± 1.9 s in the data set with outbred mice [3] (1 mg/kg, intragastric); 16.3 ± 1.6 s in the data set with outbred mice [3] (5 mg/kg, intragastric); 13.1 ± 1.2 s with outbred mice [3] (setting [11]); 16.0 ± 2.6 s in the data set with outbred mice [3] (20 mg/kg, intragastric). In addition, the “Protection, %” value stood at 28% with outbred mice [1]; 59% in the data set on outbred mice [3] (1 mg/kg, intragastric); 57% in the data set with outbred mice [3] (5 mg/kg, intragastric); 34% in the data set on outbred mice [3] (setting [10]); 50% in the data set on outbred mice [3] (20 mg/kg, intragastric). The entries for the “analgesic activity in acetic acid induced writhing test (in words)” value in the data set with outbred mice [2] (setting [7]) and in the data set on outbred mice [2] (10 mg/kg dose) were “potent analgesic activity” and “more effective than sodium diclofenac”, respectively. Besides, the “Pain reduction, %” value was found to be 71% in the data set with outbred mice [2] (1 mg/kg, intragastric); 42% with outbred mice [2] (5 mg/kg, intragastric); 55% in the data set on outbred mice [2] (setting [8]); 25% in the data set with outbred mice [2] (20 mg/kg, intragastric); 27% with outbred mice [4]. The “Writhes, quantity (Agent)” value in the data set on outbred mice [2] (1 mg/kg, intragastric) is 2.4 ± 0.8; in the data set on outbred mice [2] (5 mg/kg, intragastric) it was 4.9 ± 1.0; with outbred mice [2] (setting [9]) it was 4.3 ± 1.1; in the data set with outbred mice [2] (20 mg/kg, intragastric), 8.3 ± 0.5; with outbred mice [4], 7.4 ± 1.3. Further, the “analgesic activity in hot plate test (in words)” value in the data set with outbred mice [3] (setting [7]) is reported as “potent analgesic activity”; in the data set on outbred mice [3] (10 mg/kg dose) it was “Reliable analgesic activity”. Also, the “acute toxicity classification (in words)” value with white outbred mice was “moderately toxic”.

As for `Cc1c(N(C)CS(=O)(=O)O)c(=O)n(-c2ccccc2)n1C` [Metamizole], the “ED50 in acetic acid induced writhing test” value (from here on “ED50”) in data set [5] is on record as 55 mg/kg. Further, in data set [6], the “LD50 (acute toxicity)” value is given as 3300 mg/kg.

With `O=C(O)Cc1ccccc1Nc1c(Cl)cccc1Cl` [Sodium diclofenac, reference compound], in the data set with outbred mice [2] (setting [8]), the “Pain reduction, %” value was 50*** %. Further, in the data set on outbred mice [2] (setting [9]), the “Writhes, quantity (Agent)” value is 5.0 ± 1.1. Further, in the data set on outbred mice [3] (setting [10]), the “Protection, %” value was 62** %. In the data set on outbred mice [3] (setting [11]), the “Hot plate, sec. (Agent)” value was found to be 15.6 ± 2.4 s. Besides, the “ED50” value in data set [5] was 5 mg/kg.

`Cc1ccsc1C1CC(C)(O)C2CCC(C)CC2O1` (stereo not shown) [Compound 1b, 4,7-dimethyl-2-(3-methylthiophene-2-yl)octahydro-2H-chromene-4-ol]: the “Pain reduction, %” value with outbred mice [2] (setting [8]) is on record as 36*** %. Besides, in the data set on outbred mice [2] (setting [9]), the “Writhes, quantity (Agent)” value is 7.0 ± 0.6. Also, the “Hot plate, sec. (Agent)” value in the data set with outbred mice [3] (setting [11]) amounted to 12.8 ± 1.7 s.

In the case of `CC1CCC2C(C1)OC(c1cc(Br)cs1)CC2(C)O` (stereo not shown) [Compound 1d, 4,7-dimethyl-2-(4-bromothiophene-2-yl)octahydro-2H-chromene-4-ol], the “analgesic activity in acetic acid induced writhing test (in words)” value with outbred mice [2] (10 mg/kg dose) is reported as “more effective than sodium diclofenac”. Moreover, the “Pain reduction, %” value with outbred mice [2] (setting [8]) is 63** %. Also, in the data set with outbred mice [2] (setting [9]), the “Writhes, quantity (Agent)” value was found to be 3.6 ± 1.5. Besides, the “Protection, %” value with outbred mice [3] (setting [10]) turned out to be 39%. The “Hot plate, sec. (Agent)” value in the data set on outbred mice [3] (setting [11]) is 13.6 ± 1.7 s.

For `CC(=O)Oc1ccccc1C(=O)O` [Acetylsalicylic acid], in data set [5], the “ED50” value is 155 mg/kg.

Consider `CC1CCC2C(C1)OC(c1ccc(Br)s1)CC2(C)O` (stereo not shown) [Compound 1e, 4,7-dimethyl-2-(5-bromothiophene-2-yl)octahydro-2H-chromene-4-ol], for which the “Pain reduction, %” value with outbred mice [2] (setting [8]) is 34* %. For the same compound, the “Writhes, quantity (Agent)” value in the data set on outbred mice [2] (setting [9]) amounted to 6.3 ± 1.2. Also, the “Protection, %” value in the data set with outbred mice [3] (setting [10]) was determined as 18%. Also, the “Hot plate, sec. (Agent)” value with outbred mice [3] (setting [11]) is 11.6 ± 1.0 s.

Turning to `Cc1ccc(C2CC(C)(O)C3CCC(C)CC3O2)s1` (stereo not shown) [Compound 1c, 4,7-dimethyl-2-(5-methylthiophene-2-yl)octahydro-2H-chromene-4-ol], the “Pain reduction, %” value in the data set with outbred mice [2] (setting [8]) is 39*** %. Further, in the data set with outbred mice [2] (setting [9]), the “Writhes, quantity (Agent)” value was 6.6 ± 0.5. Moreover, the “Hot plate, sec. (Agent)” value in the data set with outbred mice [3] (setting [11]) turned out to be 17.4 ± 2.4 s.

Regarding `CC1CCC2C(C1)OC(c1ccc([N+](=O)[O-])s1)CC2(C)O` (stereo not shown) [Compound 1f, 4,7-dimethyl-2-(5-nitrothiophene-2-yl)octahydro-2H-chromene-4-ol], in the data set with outbred mice [2] (setting [8]), the “Pain reduction, %” value is 32* %. In addition, the “Writhes, quantity (Agent)” value in the data set with outbred mice [2] (setting [9]) was 7.5 ± 1.2. Further, in the data set on outbred mice [3] (setting [10]), the “Protection, %” value is on record as 20%. Further, the “Hot plate, sec. (Agent)” value with outbred mice [3] (setting [11]) is 14.5 ± 1.6 s.

Values taken from patent US9999613B2, “2H-chromene derivatives as analgesic agents” (OBSHESTVO S OGRANICHENNOI OTVETSVENNOSTJU “LEOFORS”, priority 2014, dated 2018).
